Experimental data reported in patent US11752125B2, “Anti-neuroinflammatory and protective compounds in Achillea fragrantissima” (THE STATE OF ISRAEL MINISTRY OF AGRICULTURE & RURAL …, priority 2013, dated 2023).

Tests used:
Assay type in all cases: cell-based, rat
IL-6 = IL-6 secretion from LPS-stimulated microglial cells (ELISA); details: LPS 100 ng/mL, 24 h
Protocol: 2. Plate microglial cells (3.5×10^4 cells/well) on a 24-well tissue culture plate, in DMEM containing 10% FBS, 2 mM glutamine, 100 U/ml penicillin and 100 micrograms/mL streptomycin;
Microglial cells were treated with different concentrations of TTF, followed by stimulation with LPS (100 ng/mL). After 24 h, conditioned media were collected and tested for cytokine levels by ELISA. Cell viability was determined using the crystal violet assay (FIG. 9C). Values represent the means±SEM (n=4 for each treatment).

MMP-9 = MMP-9 transcripts in LPS-activated microglial cells (real-time PCR); details: LPS 4.5 ng/mL; quantitative real-time PCR
Protocol: (§1) RNA was extracted by the RNeasy Plus Mini Kit (Qiagen, Hilden, Germany) according to the manufacturer's instructions. Genomic DNA was removed from the RNA samples by using 50 units of RNase-free DNaseI at 37° C. for 1 h. RNA ([…]) was converted to cDNA using the Thermo Scientific Verso cDNA kit (Thermo Fisher Scientific Inc) following the manufacturer's protocol. The cDNA was used for quantitative real-time PCR amplification with TaqMan chemistry (Applied Biosystems) using Rat MMP9, TNFα, IL1β, iNOS, COX2 pre-designed TaqMan Gene Expression Assay from Applied Biosystems (Rn00579162_m1, Rn00562055_m1, Rn00580432_m1, Rn00561646_m1, Rn01483828_m1, respectively). […] All results from three technical replicates were normalized relative to α-Tubulin (Rn01532518.g1) and GAPDH (Rn01775763.g1), respectively, and expressed as relative expression ratios calculated (relative quantity, RQ) using the comparative method and based on the data that were created by the ABI PRISM 7700 Sequence Detection System (using version 1.6 software).
(§2) Procedure 23. Measurement of IL-1Beta, TNFalpha, iNOS, COX-2 and MMP-9 Transcripts in LPS-Activated Microglial Cells by Quantitative Real-Time PCR Analysis. • 1. […]
Microglial cells were treated with the indicated concentrations of achillolide A, followed by stimulation with LPS (4.5 ng/mL). […] The levels of MMP-9 transcripts were measured by quantitative real-time PCR. […]

glutamate = experiment: Glutamate secretion from LPS-activated microglial cells; details: LPS 100 ng/mL, 20 h
Protocol: For glutamate measurements, 3.5×10^4 cells/well were plated on a 24-well tissue culture plate. After 24 h of incubation in DMEM containing 10% FBS, cells were stimulated with LPS (100 ng/mL) and treated with different concentrations of achillolide A. Conditioned media were collected twenty hours later, and were tested for glutamate levels using a colorimetric enzymatic assay kit (glutamate assay kit, BioVision, CA, USA) according to the manufacturer's instructions. 7. Measure the levels of glutamate using a colorimetric enzymatic assay kit (glutamate assay kit, BioVision, CA, USA) according to the manufacturer's instructions. Microglial cells were treated with the indicated concentrations of achillolide A, followed by stimulation with LPS (100 ng/mL). After 20 h, conditioned media were collected and tested for glutamate levels by a commercial kit. Values represent the means±SEM (n=4 for each treatment). ** p<0.01; *** p<0.001, compared to LPS-stimulated cells.

iNOS = iNOS transcripts in LPS-stimulated microglial cells (real-time PCR); details: 20 μg/mL; LPS 4.5 ng/mL, 5 h
Protocol: as §1, §2
Microglial cells were treated with 20 μg/mL of achillolide A, followed by stimulation with LPS (4.5 ng/mL). […] The results are expressed as percentages relative to LPS-stimulated cells. […]

| Compound | effect on LPS-elicited IL-6 secretion (IL-6) | effect on MMP-9 transcripts (MMP-9) | inhibition of the LPS-induced levels of secreted glutamate (glutamate) [%] | effect on LPS-induced iNOS transcript levels (iNOS) |
| --- | --- | --- | --- | --- |
| COc1cc(-c2oc3cc(OC)c(OC)c(O)c3c(=O)c2O)ccc1O [TTF, 3,5,4′-trihydroxy-6,7,3′-trimethoxyflavone] | markedly inhibited | – | – | – |
| C=C1CCC2=C(CO)C(=O)O[C@H]2/C=C(\C)[C@H](OC(C)=O)CC1=O [achillolide A] | – | down-regulates | 80 | significantly inhibited |
